We go through 15 compounds from patent US10821115B2, “Compounds that inhibit Mcl-1 protein” (priority 2017, dated 2020).

Read-outs that look alike come from different tables or passages of the source.

Usually IC50 stands for the point on the concentration scale where inhibition reaches its midpoint.

For experiment [1], the target named is recombinant human Mcl-1 (residues 171-327) / Bim interaction (Homo sapiens (Human), UniProt Q07820). The experiment is described as follows: biochemical. The experiment is classed as binding. The following applies: read-out: Mcl-1 HTRF IC50. Background: Time-resolved FRET reads energy transfer from a long-lived donor to a nearby acceptor.
The test system of experiment [2] is human multiple myeloma cell line, OPM-2. The experiment is described as follows: Cell viability assay (OPM-2 10 FBS), CellTiter-Glo. The experiment is classed as cell-based. Summed up:
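IC50 values come from 4-parameter logistic fits of luminescence signals reflecting cell viability. Treatment lasted 16 h at 37 °C in complete medium with 10% FBS, starting from 3000 cells/well.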

Where [3] appears, read: TR-FRET, Mcl-1(171-327) / biotin-Bim (51-76).
Setting [4] is: Homo sapiens, OPM-2, 16 h, read-out: OPM-2 10% FBS IC50 IP, OPM-2 cells, 10% FBS, 16 h, CellTiter-Glo.
Where [5] appears, read: read-out: OPM-2 10% FBS IC50 IP, OPM-2 cells, 10% FBS, 16 h, CellTiter-Glo.
Setting [6] is: 0.1 nM Mcl-1(171-327), 0.05 nM biotin-Bim (51-76).
[7] abbreviates: Homo sapiens, OPM-2, 16 h, read-out: OPM-2 10% FBS IC50 IP, OPM-2 cells, 10% FBS, 16 h incubation.

Chain of recombinant human Mcl-1 (residues 171-327) / Bim interaction (Q07820 171-327): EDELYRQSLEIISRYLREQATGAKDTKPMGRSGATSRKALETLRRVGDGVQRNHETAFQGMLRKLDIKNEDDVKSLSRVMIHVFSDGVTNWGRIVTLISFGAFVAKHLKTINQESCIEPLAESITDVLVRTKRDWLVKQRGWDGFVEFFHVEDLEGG

Take `COCCOC[C@]1(O)/C=C/C[C@H](C)[C@@H](C)S(=O)(=O)NC(=O)c2ccc3c(c2)N(C[C@@H]2CC[C@H]21)C[C@@]1(CCCc2cc(Cl)ccc21)CO3` [Example 100444, (1S,3′R,6′R,7′S,8′E,11′S,12′R)-6-chloro-7′-hydroxy-7′-((2-methoxyethoxy)methyl)-11′,12′-dimethyl-3,4-dihydro-2H,15′H-spiro[naphthalene-1,22′-[20]oxa[13]thia[1,14]diazatetracyclo [14.7.2.0~3,6~.0~19,24~]pentacosa[8,16,18,24]tetraen]-15′-one 13′,13′-dioxide]: the IC50 amounted to 0.098 nM in experiment [1] (setting [3]) and 646 nM in experiment [2] (setting [4]).
Turning to `C[C@@H]1[C@@H](C)CCC[C@](O)(CC(=O)N2CCN(C)CC2)[C@@H]2CC[C@H]2CN2C[C@@]3(CCCc4cc(Cl)ccc43)COc3ccc(cc32)C(=O)NS1(=O)=O` (single isomer, unassigned) [Example 100168], the IC50 in experiment [1] (setting [3]) was found to be 0.249 nM; in experiment [2] (setting [4]), 196 nM.
Consider `C[C@@H]1[C@@H](C)CCC[C@@](O)(C#CCCN2CCOCC2)[C@@H]2CC[C@H]2CN2C[C@@]3(CCCc4cc(Cl)ccc43)COc3ccc(cc32)C(=O)NS1(=O)=O` [Example 100371, (1S,3′R,6′R,7′S,11′S,12′R)-6-chloro-7′-hydroxy-11′,12′-dimethyl-7′-(4-(4-morpholinyl)-1-butyn-1-yl)-3,4-dihydro-2H,15′H-spiro[naphthalene-1,22′-[20]oxa[13]thia[1,14]diazatetracyclo [14.7.2.0~3,6~.0~19,24~]pentacosa[16,18,24]trien]-15′-one 13′,13′-dioxide], for which the IC50 is 0.39 nM in experiment [1] (setting [3]) and 307 nM in experiment [2] (setting [5]).
Consider `CO[C@@]1(C#CCCN2CCOC[C@@H]2C)/C=C/C[C@H](C)[C@@H](C)S(=O)(=O)NC(=O)c2ccc3c(c2)N(C[C@@H]2CC[C@H]21)C[C@@]1(CCCc2cc(Cl)ccc21)CO3` [Example 100506, (1S,3′R,6′R,7′S,8′E,11′S,12′R)-6-chloro-7′-methoxy-11′,12′-dimethyl-7′-(4-((3S)-3-methyl-4-morpholinyl)-1-butyn-1-yl)-3,4-dihydro-2H,15′H-spiro[naphthalene-1,22′-[20]oxa[13]thia[1,14]diazatetracyclo [14.7.2.0~3,6~.0~19,24~]pentacosa[8,16,18,24]tetraen]-15′-one 13′,13′-dioxide], for which the IC50 came to 0.497 nM in experiment [1] (setting [3]) and 1270 nM in experiment [2] (setting [4]).
Turning to `CO[C@@]1(CC(=O)N2CCN3CCOC[C@H]3C2)/C=C/C[C@H](C)[C@@H](C)S(=O)(=O)NC(=O)c2ccc3c(c2)N(C[C@@H]2CC[C@H]21)C[C@@]1(CCCc2cc(Cl)ccc21)CO3` [Example 100411, (1S,3′R,6′R,7′S,8′E,11′S,12′R)-6-chloro-7′-(2-((9aR)-hexahydropyrazino[2,1-c][1,4]oxazin-8(1H)-yl)-2-oxoethyl)-7′-methoxy-11′,12′-dimethyl-3,4-dihydro-2H,15′H-spiro[naphthalene-1,22′-[20]oxa[13]thia[1,14]diazatetracyclo [14.7.2.0~3,6~.0~19,24~]pentacosa[8,16,18,24]tetraen]-15′-one 13′,13′-dioxide], the figures for the IC50 in experiment [1] (setting [3]) and in experiment [2] (setting [4]) were 0.584 nM and 2100 nM, respectively.
As to `CCO[C@]1(CN2CCN3CCCC[C@@H]3C2)/C=C/CC[C@@H](CC)S(=O)(=O)NC(=O)c2ccc3c(c2)N(C[C@@H]2CC[C@H]21)C[C@@]1(CCCc2cc(Cl)ccc21)CO3` [Example 42, (1S,3′R,6′R,7′R,8′E,12′R)-6-chloro-7′-ethoxy-12′-ethyl-7′-((9aR)-octahydro-2H-pyrido[1,2-a]pyrazin-2-ylmethyl)-3,4-dihydro-2H,15′H-spiro[naphthalene-1,22′-[20]oxa[13]thia[1,14]diazatetracyclo [14.7.2.0~3,6~.0~19,24~]pentacosa[8,16,18,24]tetraen]-15′-one 13′,13′-dioxide], the figures for the IC50 in experiment [1] (setting [6]) and in experiment [2] (setting [7]) were 0.17 nM and 149 nM, respectively.
On to `CO[C@]1(C)CCC[C@H](C)[C@@H](C)S(=O)(=O)NC(=O)c2ccc3c(c2)N(C[C@@H]2CC[C@H]21)C[C@@]1(CCCc2cc(Cl)ccc21)CO3` (single isomer, unassigned) [Example 100211], for which the 50% inhibitory concentration (IC50) is 1.44 nM in experiment [1] (setting [3]) and 4780 nM in experiment [2] (setting [5]).
As to `C[C@@H]1[C@@H](C)CCC[C@@](O)(CN)[C@@H]2CC[C@H]2CN2C[C@@]3(CCCc4cc(Cl)ccc43)COc3ccc(cc32)C(=O)NS1(=O)=O` (single isomer, unassigned) [Example 507], the IC50 is 13.7 nM in experiment [1] (setting [6]) and above 33300 nM in experiment [2] (read-out: OPM-2 10% FBS IC50 IP, OPM-2 cells, 10% FBS, 16 h incubation).
On to `CO[C@]1(CN2C[C@H]3C[C@@H]2CN3C(C)C)/C=C/C[C@H](C)[C@@H](C)S(=O)(=O)NC(=O)c2ccc3c(c2)N(C[C@@H]2CC[C@H]21)C[C@@]1(CCCc2cc(Cl)ccc21)CO3` [Example 314, (1S,3′R,6′R,7′R,8′E,11′S,12′R)-6-chloro-7′-methoxy-11′,12′-dimethyl-7′-(((1R,4R)-5-(1-methylethyl)-2,5-diazabicyclo[2.2.1]hept-2-yl)methyl)-3,4-dihydro-2H,15′H-spiro[naphthalene-1,22′-[20]oxa[13]thia[1,14]diazatetracyclo [14.7.2.0~3,6~.0~19,24~]pentacosa[8,16,18,24]tetraen]-15′-one 13′,13′-dioxide], for which the IC50 in experiment [1] (setting [6]) was determined as 0.118 nM; in experiment [2] (setting [7]) it was 126 nM.
For the compound `CCC[C@]1(OC)/C=C/C[C@H](C)[C@@H](C)S(=O)(=O)NC(=O)c2ccc3c(c2)N(C[C@@H]2CC[C@H]21)C[C@@]1(CCCc2cc(Cl)ccc21)CO3` [Example 100236, (1S,3′R,6′R,7′S,8′E,11′S,12′R)-6-chloro-7′-methoxy-11′,12′-dimethyl-7′-propyl-3,4-dihydro-2H,15′H-spiro[naphthalene-1,22′-[20]oxa[13]thia[1,14]diazatetracyclo [14.7.2.0~3,6~.0~19,24~]pentacosa[8,16,18,24]tetraen]-15′-one 13′,13′-dioxide], the IC50 in experiment [1] (setting [3]) amounted to 1.1 nM; in experiment [2] (setting [4]), 933 nM.
Take `CO[C@]1(CN2CCOCC2)/C=C/C[C@H](C)[C@@H](C)S(=O)(=O)NC(=O)c2ccc3c(c2)N(C[C@@H]2CC[C@H]21)C[C@@]1(CCCc2cc(Cl)ccc21)CO3` [Example 53, (1S,3′R,6′R,7′R,8′E,11′S,12′R)-6-chloro-7′-methoxy-11′,12′-dimethyl-7′-(4-morpholinylmethyl)-3,4-dihydro-2H,15′H-spiro[naphthalene-1,22′-[20]oxa[13]thia[1,14]diazatetracyclo [14.7.2.0~3,6~.0~19,24~]pentacosa[8,16,18,24]tetraen]-15′-one 13′,13′-dioxide]: the IC50 worked out at 0.336 nM in experiment [1] (setting [6]) and 290 nM in experiment [2] (setting [7]).
On to `C[C@@H]1[C@@H](C)CCC[C@@]2(C[C@H]2C(=O)N2CCN3CCOC[C@H]3C2)[C@@H]2CC[C@H]2CN2C[C@@]3(CCCc4cc(Cl)ccc43)COc3ccc(cc32)C(=O)NS1(=O)=O` [Example 100303, (1R,2R,3′R,6′R,11′S,12′R,22′S)-6″-chloro-2-((9aR)-hexahydropyrazino[2,1-c][1,4]oxazin-8(1H)-ylcarbonyl)-11′,12′-dimethyl-3″,4″-dihydro-2″H,15′H-dispiro[cyclopropane-1,7′-[20]oxa[13]thia[1,14]diazatetracyclo [14.7.2.0~3,6~.0~19,24~]pentacosa[16,18,24]triene-22′,1″-naphthalen]-15′-one 13′,13′-dioxide], for which the IC50 in experiment [1] (setting [3]) turned out to be 3.64 nM; in experiment [2] (setting [5]), 7330 nM.
As to `CO[C@@]1(CCN2CCN(C)C(=O)C2)/C=C/C[C@H](C)[C@@H](C)S(=O)(=O)NC(=O)c2ccc3c(c2)N(C[C@@H]2CC[C@H]21)C[C@@]1(CCCc2cc(Cl)ccc21)CO3` [Example 100430, (1S,3′R,6′R,7′S,8′E,11′S,12′R)-6-chloro-7′-methoxy-11′,12′-dimethyl-7′-(2-(4-methyl-3-oxo-1-piperazinyl)ethyl)-3,4-dihydro-2H,15′H-spiro[naphthalene-1,22′-[20]oxa[13]thia[1,14]diazatetracyclo [14.7.2.0~3,6~.0~19,24~]pentacosa[8,16,18,24]tetraen]-15′-one 13′,13′-dioxide], the values for the IC50 in experiment [1] (setting [3]) and in experiment [2] (setting [4]) were 0.057 nM and 358 nM, respectively.
As for `COCC[C@@H]1[C@@H](C)C/C=C/[C@](CN2CCN(C(C)(C)COC)CC2)(OC)[C@@H]2CC[C@H]2CN2C[C@@]3(CCCc4cc(Cl)ccc43)COc3ccc(nc32)C(=O)NS1(=O)=O` [Example 27, (1S,3′R,6′R,7′S,8′E,11′S,12′R)-6-chloro-7′-methoxy-7′-((4-(2-methoxy-1,1-dimethylethyl)-1-piperazinyl)methyl)-12′-(2-methoxyethyl)-11′-methyl-3,4-dihydro-2H,15′H-spiro[naphthalene-1,22′-[20]oxa[13]thia[1,14,25]triazatetracyclo [14.7.2.0~3,6~.0~19,24~]pentacosa[8,16,18,24]tetraen]-15′-one 13′,13′-dioxide], the half-maximal inhibitory concentration (IC50) in experiment [1] (setting [6]) turned out to be 0.095 nM; in experiment [2] (setting [7]), 29 nM.
`CO[C@@]1(C)/C=C/C[C@H](C)[C@@H](CCN2CCOCC2)S(=O)(=O)NC(=O)c2ccc3c(c2)N(C[C@@H]2CC[C@H]21)C[C@@]1(CCCc2cc(Cl)ccc21)CO3` (single isomer, unassigned) [Example 100599]: the IC50 in experiment [1] (setting [3]) was determined as 1.15 nM; in experiment [2] (setting [5]), 1140 nM.
